Source: patent publication US8039430B2 (University of Wollongong, priority 2005, dated 2011)
Where a name gives a salt, the structure may show the parent alone.

Assays:
[1] = test system: Staphylococcus aureus (ATCC 6538P); assay: Antibacterial assay (MIC), Staphylococcus aureus ATCC 6538P, Luria Broth, Example 1; type: cell-based; conditions: Staphylococcus aureus, ATCC6538P; Example 1 compounds; S. aureus ATCC 6538P; 24 hrs, 37° C.; range if at least two of three values fell within it; read-out: Sa (minimum inhibitory concentration)
Summary of the method: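 Broth microdilution in Luria Broth, 2-fold series from 125 to 0.98 ug/ml in triplicate, with 1/1000-diluted overnight culture; up to 2.5% DMSO. Incubated 24 hrs at 37° C with slow rotation; MIC read as lowest concentration giving a clear well without bacterial pellet.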

[2] = test system: #820 E. faecium van A ST17; assay: Antibacterial assay (MIC), VRE strain #820, Enterococossel Broth, Example 1; type: cell-based, Enterococcus faecium; conditions: Enterococcus faecium; Example 1 compounds; VRE #820 E. faecium van A; 24 hrs, 37° C.; read-out: 820 (minimum inhibitory concentration)
Summary of the method: (§1)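 Broth microdilution MIC vs E. faecium VRE strains grown in Enterococossel broth, inoculum 1/1000 of overnight culture; compounds tested in triplicate at 125–0.98 ug/ml (2-fold), top-well DMSO 2.5%. Plates incubated 24 h at 37 °C; MIC read as clear well, no pellet and no black colouring of medium.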

[3] = test system: #449 E. faecium van B ST17; assay: Antibacterial assay (MIC), VRE strain #449, Enterococossel Broth, Example 1; type: cell-based, Enterococcus faecium; conditions: Enterococcus faecium; Example 1 compounds; VRE #449 E. faecium van B; 24 hrs, 37° C.; read-out: 449 (minimum inhibitory concentration)
Summary of the method: (§2)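 Broth microdilution in Enterococossel Broth, triplicate twofold dilutions from 125 to 0.98 ug/ml, inoculated with 1/1000-diluted overnight E. faecium van B culture. Incubated 24 h at 37° C with slow rotation. MIC read as lowest concentration without pellet or black medium; first-row DMSO 2.5%.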

[4] = test system: #243 E. faecium van B ST17; assay: Antibacterial assay (MIC), VRE strain #243, Enterococossel Broth, Example 1; type: cell-based, Enterococcus faecium; conditions: Enterococcus faecium; Example 1 compounds; VRE #243 E. faecium van B; 24 hrs, 37° C.; read-out: 243 (minimum inhibitory concentration)
Summary of the method: as §2

[5] = test system: #987 E. faecium van B ST39; assay: Antibacterial assay (MIC), VRE strain #987, Enterococossel Broth, Example 1; type: cell-based, Enterococcus faecium; conditions: Enterococcus faecium; Example 1 compounds; VRE #987 E. faecium van B; 24 hrs, 37° C.; read-out: 987 (minimum inhibitory concentration)
Summary of the method: as §1

[6] = test system: Multi-Drug-Resistant Staphylococcus epidermidis (ATCC 700562); assay: MIC determination by micro-broth dilution (NCCLS), multi-drug-resistant S. epidermidis; type: cell-based; conditions: ATCC700562, Example 1 compounds, Mueller Hinton II broth, 24 hours, 37° C.
Method: (§3) Antibacterial Assay Methods for Staphylococcus aureus Mu50 (ATCC 700699), Methicillin-Resistant Staphylococcus aureus (ATCC 43300), Multi-Drug-Resistant Staphylococcus epidermidis (ATCC 700562) Compounds
(§4) The compounds were stored at room temperature in the dark prior to use. Each compound was solubilized in DMSO to a final concentration of 40 mg/mL. The stock material was diluted to a concentration equivalent to two times the final in-well high test concentration (100 μg/mL for all experimental compounds) in Mueller Hinton II broth. […] Vancomycin and oxacillin were obtained from Sigma Aldrich Chemical Company and were used as positive and/or negative control compounds in the reported assays at high test concentrations of 100, 25 and 100 μg/mL respectively.
(§5) The bacterial strains employed in these assays were obtained from the American Type Culture Collection (ATCC). All of the bacterial strains were propagated as recommended by the ATCC. Each strain was stored as a frozen glycerol stock at −80° C. and a 10 μL loop of the frozen stocks was used to inoculate each culture for these assays.
(§6) The susceptibility of the above microorganisms to the test compounds was evaluated by determining the MIC of each compound using micro-broth dilution analysis according to the methods recommended by the NCCLS. All microbial strains were obtained from American Type Culture Collections (ATCC) and cultured according to the suppliers recommendations. Evaluation of the susceptibility of each organism against the test compounds included a positive control antibiotics Vancomycin and Oxacillin. For each organism, a standardized inoculum was prepared by direct suspension of freshly plated colonies in Mueller Hinton II broth to an optical density 625 nm (OD625) of 0.1 (equivalent to a 0.5 McFarland standard). The suspended inoculum was diluted to a concentration of approximately 1×10^6 colony forming units per milliliter (CFU/mL) and 100 μL placed into triplicate wells of a 96-well plate containing 100 μL of test compound serially diluted 2-fold in Mueller Hinton II broth. One hundred microliters of the inoculum was also added to triplicate wells containing 100 μL of two-fold serial dilutions of a positive control antibiotic and to wells containing 100 μL of media only. This dilution scheme yielded final concentrations for each microbial organism estimated to be 5×10^5 CFU/mL (verified by colony quantification on appropriate agar plates, data is not presented). Test compound concentrations ranged from a high-test of 1:2 (100 μg/mL)) to a low test of 1:2048 (0.1 μg/mL) using a two-fold dilution scheme. The plates were incubated for 24 hours at 37° C., and the microbial growth at each concentration of compound was determined by measuring the optical density at 625 nm on a Molecular Devices SpectraMax Plus-384 plate reader.
(§7) Microsoft Excel 2003 was used to analyze and graph the data, and the MIC (minimal inhibitory concentration) was determined from the resulting data.

[7] = test system: Staphylococcus aureus Mu50 (ATCC 700699); assay: MIC determination by micro-broth dilution (NCCLS), S. aureus Mu50; type: cell-based; conditions: ATCC700699, Example 1 compounds, Mueller Hinton II broth, 24 hours, 37° C.
Method: as §3, §4, §5, §6, §7

[8] = test system: Methicillin-Resistant Staphylococcus aureus (ATCC 43300); assay: MIC determination by micro-broth dilution (NCCLS), methicillin-resistant S. aureus; type: cell-based; conditions: ATCC43300, Example 1 compounds, Mueller Hinton II broth, 24 hours, 37° C.
Method: as §3, §4, §5, §6, §7

[9] = molecular target: T1, HIV integrase enzyme (Human immunodeficiency virus type 1 group M subtype B, UniProt P04585); assay: HIV integrase initial screening (3′ processing function); type: biochemical; conditions: Example 2 compounds; Conc. 50 μg/mL; 3′ processing function of the enzyme
T1 construct: against the HIV integrase enzyme
Source text: Compounds synthesized in Example 2 were additionally included in a random database screening strategy against the HIV integrase enzyme.
The compounds that were chosen to be tested against HIV integrase were 78, 81, 88 and 89 and the results are represented in Table 4.
The results for the screening of the four target molecules 165-168 against the HIV integrase enzyme yielded some encouraging results which supported the proposed mechanism of binding in the active binding trench of the HIV integrase enzyme. The testing procedure for the four target compounds differed from the original screening protocols employed. The original screening measured inhibition against the 3′ processing function of the enzyme at the fixed concentration of 50 μg/mL, whereas the four target molecules were tested in an assay adapted from a literature procedure,^107 which measures inhibition against the 3′ strand transfer function of the enzyme. This allows a result to be obtained as an inhibition constant (IC50) concentration, which is the standard measurement of inhibition within the literature. Along with the four target molecules, 88 was also re-tested in the 3′ strand transfer assay to determine the IC50 for direct comparison with the literature.

[10] = test system: MRSA isolates; conditions: 43 MRSA isolates from adults with community respiratory infections; cited from earlier work

Structure (SMILES)	MIC [1] [µg/mL]	MIC [2] [µg/mL]	MIC [3] [µg/mL]	MIC [4] [µg/mL]	MIC [5] [µg/mL]	MIC [6] [µg/mL]	MIC [7] [µg/mL]	MIC [8] [µg/mL]	inhibition at 50 µg/mL [9] [%]	susceptibility rates [10] [%]
CC(C)CCOc1ccc2ccccc2c1-c1c(OCC(=O)N[C@H](CCCCN)C(=O)N[C@H](CCCNC(=N)N)C(=O)N[C@@H](CC(C)C)C(=O)OCc2ccccc2)ccc2ccccc12.Cl.Cl (atropisomer, axis not shown) [Compound 1]	0.99 to 15.6	0.99 to 15.6	15.7 to 62.5	15.7 to 62.5	15.7 to 62.5	0.99 to 15.6	0.99 to 15.6	0.99 to 15.6	–	–
CC(C)CCOc1ccc2ccccc2c1-c1c(OCC(=O)N[C@H](CCCCN)C(=O)N[C@H](CCCNC(=N)N)C(=O)N[C@H](COCc2ccccc2)CC(C)C)ccc2ccccc12.Cl.Cl (atropisomer, axis not shown) [Compound 15]	0.99 to 15.6	15.7 to 62.5	15.7 to 62.5	15.7 to 62.5	15.7 to 62.5	0.99 to 15.6	0.99 to 15.6	0.99 to 15.6	–	–
CC(C)CCOc1ccc2ccccc2c1-c1c(OCC(=O)N[C@H](CCCCN)C(=O)N[C@H](CCCNC(=N)N)C(=O)N[C@@H](CC(C)C)c2ncc(-c3ccccc3)o2)ccc2ccccc12.Cl.Cl (atropisomer, axis not shown) [Compound 16]	0.99 to 15.6	> 62.6	> 62.6	> 62.6	> 62.6	0.99 to 15.6	0.99 to 15.6	0.99 to 15.6	–	–
CC(C)CCOc1ccc2ccccc2c1-c1c(OCC(=O)N[C@H](CCCCN)C(=O)N[C@H](CCCNC(=N)N)C(=O)N[C@@H](CC(C)C)c2nc(S(=O)(=O)O)c(-c3ccccc3)o2)ccc2ccccc12.Cl.Cl (atropisomer, axis not shown) [Compound 17]	< 0.98	15.7 to 62.5	15.7 to 62.5	15.7 to 62.5	15.7 to 62.5	0.99 to 15.6	0.99 to 15.6	0.99 to 15.6	–	–
CC(C)CCOc1ccc2ccccc2c1-c1c(OCC(=O)N[C@H](CCCCN)C(=O)N[C@H](CCCNC(=N)N)C(=O)NC2(C(=O)OCc3ccccc3)CCCCC2)ccc2ccccc12.Cl.Cl (atropisomer, axis not shown) [Compound 21]	0.99 to 15.6	15.7 to 62.5	15.7 to 62.5	15.7 to 62.5	15.7 to 62.5	0.99 to 15.6	0.99 to 15.6	0.99 to 15.6	–	–
CC(C)CCOc1ccc2ccccc2c1-c1c(OCCNC(=O)[C@@H](CCCCN)NC(=O)[C@@H](CCCNC(=N)N)NC(=O)[C@@H](CC(C)C)NC(=O)Cc2ccccc2)ccc2ccccc12.Cl.Cl (atropisomer, axis not shown) [Compound 30]	0.99 to 15.6	> 62.6	> 62.6	> 62.6	> 62.6	0.99 to 15.6	0.99 to 15.6	0.99 to 15.6	–	–
Cl.Cl.N=C(N)NCCC[C@@H](NC(=O)CCCOc1ccc2ccccc2c1-c1c(OCCCC(=O)N[C@H](CCCNC(=N)N)C(=O)OCc2ccccc2)ccc2ccccc12)C(=O)OCc1ccccc1 (atropisomer, axis not shown) [Compound 31]	0.99 to 15.6	15.7 to 62.5	15.7 to 62.5	15.7 to 62.5	15.7 to 62.5	0.99 to 15.6	15.7 to 62.5	0.99 to 15.6	–	–
C=CCOc1ccc(C[C@H](NC(C)=O)C(=O)N[C@@H](CCCCN)C(=O)N[C@@H](CC=C)C(=O)OC)cc1 [Compound 78, hydrochloride]	–	–	–	–	–	–	–	–	15	–
C=CCOc1ccc(C[C@H](NC(C)=O)C(=O)N[C@@H](CCCNC(=N)N)C(=O)N[C@@H](CC=C)C(=O)OC)cc1 [Compound 81, Methyl(2S,5S,8S)-2-allyl-8-(4-allyloxybenzyl)-3,6,9-triaza-5-(3-[guanidino]propyl)-4,7,10-oxoundecanoate hydrochloride]	–	–	–	–	–	–	–	–	70	–
C=CCOc1ccc(C[C@H](NC(C)=O)C(=O)N[C@@H](CCCCNC(=N)N)C(=O)N[C@@H](CC=C)C(=O)OC)cc1 [Compound 88, Methyl(2S,5S,8S)-2-allyl-9-(4-allyloxyphenyl)-5-(4-[guanidino]butyl)-3,6,9-triaza-4,7,10-trioxoundecanoate hydrochloride]	–	–	–	–	–	–	–	–	95	–
COC(=O)[C@@H]1CC=CCOc2ccc(cc2)C[C@H](NC(C)=O)C(=O)N[C@@H](CCCCNC(=N)N)C(=O)N1 [Compound 89, (7S,10S,13S,4E/Z)-13-Acetamido-10-(4-[guanidino]butyl)-8,11-diaza-7-methoxycarbonyl-2-oxa-9,12-dioxo-1(1,4)phenylenacyclotetradecaphane-4-ene hydrochloride]	–	–	–	–	–	–	–	–	4	–
CC[C@H]1OC(=O)[C@H](C)[C@@H](O[C@H]2C[C@@](C)(OC)[C@@H](O)[C@H](C)O2)[C@H](C)[C@@H](O[C@@H]2O[C@H](C)C[C@H](N(C)C)[C@H]2O)[C@](C)(O)C[C@@H](C)C(=O)[C@H](C)[C@@H](O)[C@]1(C)O [erythromycin]	–	–	–	–	–	–	–	–	–	12
